In patent publication US20230142739A1, “PROTEIN-PROTEIN INTERACTION STABILIZERS” (The Regents of the University of California, priority 2020, published 2023):
Where two headings read alike, the source gives them in different places. Each block holds one molecule with its values, some of them ahead of it. Non-standard residues stand in square brackets, D forms with d. Residues, ends and D or L forms follow the SMILES beside them. *: point of attachment. 5FAM = O=C1OC2(c3ccc(O)cc3Oc3cc(O)ccc32)c2ccc(C(=O)*)cc21; pT = C[C@@H](OP(=O)(O)O)[C@H](N)C(=O)O; pS = N[C@@H](COP(=O)(O)O)C(=O)O

Key:
Type in all cases: binding
[1] = target: T1, 14-3-3σ(C42)/ERα-pp complex (Homo sapiens, UniProt P31947, C38N/N42C); assay: Disulfide tethering primary screen, intact protein LC/MS, protein-peptide complex
T1 construct: with a truncated C-terminus after T231; His6 (N, cleaved yes); made in house; host or cells: E. coli NiCo21 (DE3), pPROEX HTb
Protocol: Apo-14-3-3σ or the 14-3-3σ/ERα-pp complex was screened against a 1600-member disulfide library under mildly reducing conditions (100 μM betamercaptoethanol; βME). Conjugate formation for each individual reaction was analyzed by intact protein MS. Three peaks observed in mass spectra corresponded to apo, βME-capped, and fragment-conjugated 14-3-3σ. The ‘percent tethering’, defined as the intensity of the fragment-specific conjugate protein peak divided by the sum of the intensities for all protein peaks, was calculated for each individual experiment using an automated pipeline. (492)
Disulfide Tethering screening and data processing. The primary screening was performed by incubating the target with individual compounds in a 384-well plate format. A custom library of 1600 disulfide-containing fragments of the UCSF Small Molecule Discovery Center (SMDC), synthesized as previously reported, was available as 50 mM stock solutions in DMSO. (496, 497) For screening, 14-3-3σ wild-type and Cys-mutants were diluted to 100 nM in buffer (10 mM Tris, 100 μM betamercaptoethanol (βME), pH 8.0) and plated in 384-well plates (15 μL/well). 30 nL of each fragment was pinned from the library master plates into the protein samples using a Biomek FX (Beckman) to give a final concentration of 100 μM. The duplicate experiments additionally contained 200 nM ERα-pp. The reaction mixtures were incubated for 3 hours at RT before being subjected to LC/MS (I-class Acquity UPLC/Xevo G2-XS Quadrupole Time of Flight mass spectrometer, Waters). Data collection and automated processing followed a custom workflow, as previously described. (492) All compounds described in the text were from the same lot as the original screening material.

[2] = target: T2, Pin1_72/14-3-3 complex (Homo sapiens, UniProt P61981); assay: Fluorescence anisotropy compound titration, Pin1_72/14-3-3 (CC50)
T2 construct: the full length 14-3-3γ was dialysis against 25 mM HEPES pH 7.5; made in house; host or cells: E. coli BL21(DE3), pPROEX HTb
T2 sequence (P61981 1-247): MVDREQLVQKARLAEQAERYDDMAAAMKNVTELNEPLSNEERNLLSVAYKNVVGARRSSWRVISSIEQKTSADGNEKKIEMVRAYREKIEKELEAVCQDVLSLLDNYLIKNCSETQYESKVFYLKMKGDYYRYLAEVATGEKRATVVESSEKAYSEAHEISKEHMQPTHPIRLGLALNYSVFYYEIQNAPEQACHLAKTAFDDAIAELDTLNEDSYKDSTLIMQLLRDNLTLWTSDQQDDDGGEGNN
Protocol: Site-Directed Shift base fragment Screening. […] As measure of activity the inflection point of the curve was determined, representing the half-maximum complex formation (CC50).
(§1) Fluorescence Anisotropy (FA) Assays.

[3] = target: T3, 14-3-3σ(C42) (Homo sapiens, UniProt P31947, C38N/N42C); assay: Fluorescence anisotropy titration of 14-3-3σ(C42) to fluorescein-labeled partner peptides
T3 construct: with a truncated C-terminus after T231; His6 (N, cleaved yes); made in house; host or cells: E. coli NiCo21 (DE3), pPROEX HTb
T3 sequence (P31947 1-231 C38N/N42C): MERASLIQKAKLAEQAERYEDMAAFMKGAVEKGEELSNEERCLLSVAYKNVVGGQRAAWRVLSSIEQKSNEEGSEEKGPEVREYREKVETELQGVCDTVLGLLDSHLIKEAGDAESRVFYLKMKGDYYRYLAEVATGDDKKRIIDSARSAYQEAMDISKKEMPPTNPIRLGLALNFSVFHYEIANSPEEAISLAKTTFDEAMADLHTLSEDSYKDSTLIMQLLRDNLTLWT
Protocol: The 14-3-3/ER stabilizer FC (Fusicoccin) inhibits estradiol dependent signaling. FC (a natural product) inhibits dimerization of E2/ER and tamoxifen/ER. FC also blocks DNA binding and transcription (482) (PNAS May 28, 2013 110 (22) 8894-8899). Disulfide trapping for stabilizers of 14-3-3σ/ERα-pp (15-mer phosphopeptide representing the 14-3-3σ binding motif of ERα), was measured (J. Am. Chem. Soc. 2019, 141, 8, 3524-3531, FIG. 1b). Different cysteine residues yield different 14-3-3/client stabilizing chemical moieties. At each tethering residue, bound chemical moieties can be competitive with peptide, noncompetitive, or cooperative (J. Am. Chem. Soc. 2019, 141, 8, 3524-3531, FIG. 1c). […] 14-3-3σ (C42) expected mass: 26509 Da, βME capped mass: 26585 Da, protein-disulfide conjugate mass: 26795 Da. LC/MS dose response curves showing percentage of protein conjugate formation for titrations of disulfides to 14-3-3σ (C42) apo and bound to ERα-pp, were measured. […] LC/MS dose response curves showing percentage of protein conjugate formation for titrations of disulfides to 14-3-3σ (C42) apo and bound to ERα-pp, were measured. […] Dose-response curve of Fragment 1, which induces ERα binding, were measured (J. Am. Chem. Soc. 2019, 141, 8, 3524-3531, FIG. 2a-2b, supporting information). Small molecules stabilize 14-3-3σ/Erα-pp binding. […] Schematic of experimental design and Plot of anisotropy (mean+SD) for titrations of Frag001, Frag002, FC-A (natural product fusicoccane-A), or DMSO control to fluorescein-Erα-pp and 1 μM 14-3-3σ (C42) (J. Am. Chem. Soc. 2019, 141, 8, 3524-3531, FIG. 3a-3b). Dose-response curves were obtained by MS by analyzing % tethering for titrations of Fragment 2 to 14-3-3σ apo (− peptide;) or bound to different interaction partner-derived peptide motifs; ERα-pp ( ), TASK3-pp ( ), ExoS ( ) or TAZ-pp ( ), starting from 1 mM (J. Am. Chem. Soc. 2019, 141, 8, 3524-3531, FIG. 4b). LC/MS screening data of hits for 14-3-3σ (C42)+/−ERα-pp was collected. The deconvoluted LC/MS spectra of disulfide fragments bound to 14-3-3σ (C42) alone or in complex with ERα-pp were determined with 14-3-3σ (C42) expected mass: 26509 Da, βME capped mass: 26585 Da, protein-disulfide conjugate mass: between 26752-26919 Da. Fragments bound preferentially in the presence of ERα-pp: 959996 (1), 916971, and 917137 were termed ‘cooperative’. […] Fluorescence anisotropy (r) of fluorescein-ERα-pp versus concentration of 6 or FC-A binding to 14-3-3σ(C42) or 14-3-3σ(C45) was tested. […]
Fluorescence Anisotropy. […] Fluorescence anisotropy measurements were performed directly and after overnight incubation at room-temperature, using a Tecan Infinite F500 plate reader (filter set λex: 485±20 nm, λem: 535±25 nm). […]

[4] = target: T4, Pin1_72/14-3-3γ (Homo sapiens, UniProt P61981+Q13526); assay: Fluorescence anisotropy protein titration, Pin1_72/14-3-3γ at constant compound; conditions: based on internal DMSO control and 100 μM fragment
T4 construct: the full length 14-3-3γ was dialysis against 25 mM HEPES pH 7.5; made in house; host or cells: E. coli BL21(DE3), pPROEX HTb
Excerpt: Inspired by the binding poses of 3 and 9 we combined their structural features to improve stabilization. […] In case of complex stabilization, a left shift of apparent KD values is expected, here described as stabilization factors (SF).
as §1

[5] = target: T5, 14-3-3/Pin1_72 complex (Homo sapiens, UniProt P61981); assay: Cooperativity analysis, 14-3-3 titrations at varied constant fragment concentration
T5 construct: the full length 14-3-3γ was dialysis against 25 mM HEPES pH 7.5; made in house; host or cells: E. coli BL21(DE3), pPROEX HTb
Excerpt: Cooperativity in ternary complex formation. In contrast to PPI inhibition, where affinity to one of the protein pockets is the driving force for drug development, design of molecular glues is driven by cooperative ternary complex formation. Both CC50 and SF values are concentration dependent values and might differ based on assay design. […] Cooperative complex formation is often accompanied by structural changes of the interface of a complex which translates to increased stability of the ternary com-plex. In order to assess cooperativity of the ternary complex, fragments 13, 23, 27 and 28 were selected for cooper-activity analysis. The α-factor of the fragments were determined using 14-3-3 titrations in the presence of varied, but constant concentration of fragment in a dose-dependent manner. […] Further, the interval of change in stabilization further describes the systems cooperative behaviour.
However, at higher concentration regimes significant assay interference was observed, probably due to compound aggregation. Fragments 23, 27 and 28 all reached saturation or approached saturation enabling accurate determination of α-factor. […] KD remains constant also at higher concentrations of FC-A, indicating non-specific effects.

hit category (binding in presence vs absence of ERα-pp) [1]: cooperative
SMILES: NCCSSCCCC(=O)NCC(c1ccccc1)c1ccccc1 [compound 916971]

SMILES: O=Cc1ccc(-n2ccnc2-c2ccc(O)cc2)cc1Br [compound 25, 2-bromo-4-(2-(4-hydroxyphenyl)-1H-imidazol-1-yl)benzaldehyde]
activity in FA assay [2]: limited effect

SMILES: CC(C)C[C@H](NC(=O)CNC(=O)[C@H](CCC(N)=O)NC(=O)CNC(=O)[C@H](Cc1c[nH]cn1)NC(=O)CNC(=O)[C@H](CO)NC(=O)c1ccc2c(c1)C(=O)OC21c2ccc(O)cc2Oc2cc(O)ccc21)C(=O)N[C@@H](CC(C)C)C(=O)N[C@@H](CC(=O)O)C(=O)N[C@@H](C)C(=O)N[C@@H](CC(C)C)C(=O)N[C@@H](CC(=O)O)C(=O)N[C@@H](CC(C)C)C(=O)N[C@@H](C)C(=O)N[C@@H](CO)C(N)=O [ExoS]
EC50 [3]: 11100 nM

SF (fold stabilization) [4]: 2.27
SMILES: O=Cc1ccc(-n2ccnc2-c2cccnc2)cc1Br [compound 26, 2-bromo-4-(2-(pyridin-3-yl)-1H-imidazol-1-yl)benzaldehyde]
activity in FA assay [2]: limited effect

SF (fold stabilization) [4]: 0.8
SMILES: O=Cc1ccc(-n2ccnc2)c(Cl)c1 [L2]
activity in FA assay [2]: significant complex formation

hit category (binding in presence vs absence of ERα-pp) [1]: neutral
SMILES: CN(C)CCSSCCn1cc(CN2C(=O)C(=O)c3ccccc32)nn1 [compound 957838]

SMILES: CC(C)C[C@H](NC(=O)[C@H](CCC(N)=O)NC(=O)[C@H](CC(C)C)NC(=O)[C@H](CO)NC(=O)[C@H](C)NC(=O)[C@@H]1CCCN1C(=O)[C@H](CO)NC(=O)[C@H](COP(=O)(O)O)NC(=O)[C@H](Cc1c[nH]cn1)NC(=O)[C@H](CO)NC(=O)[C@H](CCCNC(=N)N)NC(=O)c1ccc2c(c1)C(=O)OC21c2ccc(O)cc2Oc2cc(O)ccc21)C(=O)NCC(=O)N[C@H](C(N)=O)[C@@H](C)O [TAZ-pp, RSHpS^89SPASLQ] (5FAM-RSH[pS]SPASLQLGT-NH2)
EC50 ([3]; fluorescein-labeled peptide): 2200 nM

SF (fold stabilization) [4]: 18.9
cooperativity factor (α-factor) [5]: approximately 60
SMILES: O=Cc1ccc(-n2ccnc2-c2ccccc2Br)cc1Br [compound 23, 2-bromo-4-(2-(2-bromophenyl)-1H-imidazol-1-yl)benzaldehyde]

SMILES: CC(C)[C@H](NC(=O)[C@H](COP(=O)(O)O)NC(=O)[C@H](CCCCN)NC(=O)[C@H](CCCNC(=N)N)NC(=O)[C@H](CCCNC(=N)N)NC(=O)c1ccc2c(c1)C(=O)OC21c2ccc(O)cc2Oc2cc(O)ccc21)C(=O)O [TASK3-pp, KRRKpS^373V-OH] (5FAM-RRK[pS]V-OH)
EC50 ([3]; fluorescein-labeled peptide): 200 nM

hit category (binding in presence vs absence of ERα-pp) [1]: cooperative
SMILES: CN(C)CCSSCCNC(=O)c1ccccc1Sc1ccccc1C#N [compound 917137]

hit category (binding in presence vs absence of ERα-pp) [1]: neutral
SMILES: CN(C)CCSSCCNC(=O)C1CCN(C(=O)c2ccccc2NC(=O)c2ccccc2)CC1 [compound 917805]

SMILES: CC[C@H](C)[C@H](NC(=O)[C@H](Cc1ccc(O)cc1)NC(=O)[C@H](Cc1ccc(O)cc1)NC(=O)[C@H](CCCCN)NC(C)=O)C(=O)N[C@H](C(=O)NCC(=O)N[C@@H](CCC(=O)O)C(=O)N[C@@H](C)C(=O)N[C@@H](CCC(=O)O)C(=O)NCC(=O)N[C@@H](Cc1ccccc1)C(=O)N1CCC[C@H]1C(=O)N[C@@H](C)C(=O)N[C@H](C(=O)N[C@H](C(=O)O)C(C)C)[C@@H](C)OP(=O)(O)O)[C@@H](C)O [ERα-pp] (Ac-KYYITGEAEGFPA[pT]V-OH)
EC50 [3]: 300 nM
